Measured values taken from PubChem BioAssay (NCI).
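Tested at 5 concentrations; 48 h exposure; 96-well plates; endpoints linearly interpolated, else capped at highest concentration. Abbreviation: GI50, concentration required for 50% inhibition of growth. The concentration for full growth arrest is given as TGI.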

How the values were obtained:
Assay in all cases: inhibition of tumour cell growth, NCI panel, 48 h
786-0 renal = system: 786-0 renal
A498 renal = system: A498 renal
A549 NSCLC = system: A549 NSCLC
ACHN renal = system: ACHN renal
BT-549 breast = system: BT-549 breast
CAKI-1 renal = system: CAKI-1 renal
CCRF-CEM leukemia = system: CCRF-CEM leukemia
COLO 205 colon = system: COLO 205 colon
DU-145 prostate = system: DU-145 prostate
EKVX NSCLC = system: EKVX NSCLC
HCC-2998 colon = system: HCC-2998 colon
HCT-116 colon = system: HCT-116 colon
HCT-15 colon = system: HCT-15 colon
HL-60(TB) leukemia = system: HL-60(TB) leukemia
HOP-62 NSCLC = system: HOP-62 NSCLC
HOP-92 NSCLC = system: HOP-92 NSCLC
HS 578T breast = system: HS 578T breast
HT29 colon = system: HT29 colon
IGROV1 ovarian = system: IGROV1 ovarian
K-562 leukemia = system: K-562 leukemia
KM12 colon = system: KM12 colon
LOX IMVI melanoma = system: LOX IMVI melanoma
M14 melanoma = system: M14 melanoma
MALME-3M melanoma = system: MALME-3M melanoma
MCF7 breast = system: MCF7 breast
MDA-MB-231 breast = system: MDA-MB-231 breast
MOLT-4 leukemia = system: MOLT-4 leukemia
NCI-H226 lung = system: NCI-H226 lung
NCI-H23 lung = system: NCI-H23 lung
NCI-H460 lung = system: NCI-H460 lung
NCI-H522 lung = system: NCI-H522 lung
NCI/ADR-RES ovarian = system: NCI/ADR-RES ovarian
OVCAR-3 ovarian = system: OVCAR-3 ovarian
OVCAR-4 ovarian = system: OVCAR-4 ovarian
OVCAR-5 ovarian = system: OVCAR-5 ovarian
OVCAR-8 ovarian = system: OVCAR-8 ovarian
PC-3 prostate = system: PC-3 prostate
RPMI-8226 leukemia = system: RPMI-8226 leukemia
RXF 393 renal = system: RXF 393 renal
SF-268 CNS = system: SF-268 CNS
SF-295 CNS = system: SF-295 CNS
SF-539 CNS = system: SF-539 CNS
SK-MEL-2 melanoma = system: SK-MEL-2 melanoma
SK-MEL-28 melanoma = system: SK-MEL-28 melanoma
SK-MEL-5 melanoma = system: SK-MEL-5 melanoma
SK-OV-3 ovarian = system: SK-OV-3 ovarian
SN12C renal = system: SN12C renal
SNB-19 CNS = system: SNB-19 CNS
SNB-75 CNS = system: SNB-75 CNS
SR leukemia = system: SR leukemia
SW-620 colon = system: SW-620 colon
T-47D breast = system: T-47D breast
TK-10 renal = system: TK-10 renal
U251 CNS = system: U251 CNS
UACC-62 melanoma = system: UACC-62 melanoma
UO-31 renal = system: UO-31 renal

In the case of `CCOC(=O)/C=C/C1=C(c2ccsc2)c2ccc(OC)cc2CC1`, the GI50 (786-0 renal) is reported as 511 nM, the TGI (786-0 renal) is reported as 30300 nM and the GI50 (A498 renal) is reported as 512 nM. For the same compound, the TGI (A498 renal) was > 31300 nM, the GI50 (A549 NSCLC) was 671 nM and the TGI (A549 NSCLC) was > 100000 nM. For the same compound, the GI50 (ACHN renal) was 701 nM, the TGI (ACHN renal) was > 52700 nM and the GI50 (BT-549 breast) was 787 nM. For the same compound, the TGI (BT-549 breast) was > 46900 nM, the GI50 (CAKI-1 renal) was 387 nM and the TGI (CAKI-1 renal) was > 100000 nM. It also gave a GI50 (CCRF-CEM leukemia) of 328 nM, a GI50 (COLO 205 colon) of 213 nM and a TGI (COLO 205 colon) of 1360 nM. For the same compound, the GI50 (DU-145 prostate) was 473 nM, the TGI (DU-145 prostate) was > 36500 nM and the GI50 (EKVX NSCLC) was 6000 nM. The TGI (EKVX NSCLC) was > 100000 nM, the GI50 (HCC-2998 colon) was 4570 nM and the TGI (HCC-2998 colon) was 26700 nM. The GI50 (HCT-116 colon) was 376 nM, the TGI (HCT-116 colon) was > 39400 nM and the GI50 (HCT-15 colon) was 222 nM. For the same compound, the TGI (HCT-15 colon) was > 20200 nM, the GI50 (HL-60(TB) leukemia) was 206 nM and the TGI (HL-60(TB) leukemia) was 794 nM. For the same compound, the GI50 (HOP-62 NSCLC) was 599 nM, the TGI (HOP-62 NSCLC) was > 100000 nM and the GI50 (HOP-92 NSCLC) was 2290 nM. The TGI (HOP-92 NSCLC) was > 55400 nM, the GI50 (HS 578T breast) was 430 nM and the TGI (HS 578T breast) was > 38700 nM. The GI50 (HT29 colon) was 275 nM, the TGI (HT29 colon) was > 41400 nM and the GI50 (IGROV1 ovarian) was 6260 nM. For the same compound, the TGI (IGROV1 ovarian) was > 100000 nM, the GI50 (K-562 leukemia) was 59.2 nM and the TGI (K-562 leukemia) was 12500 nM. The GI50 (KM12 colon) was 169 nM, the TGI (KM12 colon) was 15400 nM and the GI50 (LOX IMVI melanoma) was 610 nM. The TGI (LOX IMVI melanoma) was > 50100 nM, the GI50 (M14 melanoma) was 378 nM and the TGI (M14 melanoma) was > 100000 nM. The GI50 (MALME-3M melanoma) was 205 nM, the TGI (MALME-3M melanoma) was > 100000 nM and the GI50 (MCF7 breast) was 364 nM. It also gave a TGI (MCF7 breast) of 26400 nM, a GI50 (MDA-MB-231 breast) of 924 nM and a TGI (MDA-MB-231 breast) of 19700 nM. It also gave a GI50 (MOLT-4 leukemia) of 512 nM, a TGI (MOLT-4 leukemia) of 12900 nM and a GI50 (NCI-H226 lung) of 769 nM. For the same compound, the TGI (NCI-H226 lung) was > 62800 nM, the GI50 (NCI-H23 lung) was 525 nM and the TGI (NCI-H23 lung) was > 100000 nM. For the same compound, the GI50 (NCI-H460 lung) was 2210 nM, the TGI (NCI-H460 lung) was 15800 nM and the GI50 (NCI-H522 lung) was 260 nM. For the same compound, the TGI (NCI-H522 lung) was > 100000 nM, the GI50 (NCI/ADR-RES ovarian) was 285 nM and the GI50 (OVCAR-3 ovarian) was 205 nM. The TGI (OVCAR-3 ovarian) was 686 nM, the GI50 (OVCAR-4 ovarian) was 2330 nM and the TGI (OVCAR-4 ovarian) was > 100000 nM. For the same compound, the GI50 (OVCAR-5 ovarian) was 1660 nM, the TGI (OVCAR-5 ovarian) was > 100000 nM and the GI50 (OVCAR-8 ovarian) was 661 nM. For the same compound, the TGI (OVCAR-8 ovarian) was > 41900 nM, the GI50 (PC-3 prostate) was 202 nM and the GI50 (RPMI-8226 leukemia) was 292 nM. The TGI (RPMI-8226 leukemia) was 4150 nM, the GI50 (RXF 393 renal) was 235 nM and the TGI (RXF 393 renal) was 5020 nM. It also gave a GI50 (SF-268 CNS) of 656 nM, a TGI (SF-268 CNS) of 58100 nM and a GI50 (SF-295 CNS) of 349 nM. It also gave a TGI (SF-295 CNS) of 20600 nM, a GI50 (SF-539 CNS) of 388 nM and a TGI (SF-539 CNS) of 6130 nM. For the same compound, the GI50 (SK-MEL-2 melanoma) was 3660 nM, the TGI (SK-MEL-2 melanoma) was > 24700 nM and the GI50 (SK-MEL-28 melanoma) was 982 nM. For the same compound, the TGI (SK-MEL-28 melanoma) was > 49800 nM, the GI50 (SK-MEL-5 melanoma) was 195 nM and the TGI (SK-MEL-5 melanoma) was 11200 nM. The GI50 (SK-OV-3 ovarian) was 359 nM, the TGI (SK-OV-3 ovarian) was > 85600 nM and the GI50 (SN12C renal) was 837 nM. For the same compound, the TGI (SN12C renal) was > 23900 nM, the GI50 (SNB-19 CNS) was 357 nM and the TGI (SNB-19 CNS) was > 100000 nM. The GI50 (SNB-75 CNS) was 263 nM, the TGI (SNB-75 CNS) was > 100000 nM and the GI50 (SR leukemia) was 156 nM. The TGI (SR leukemia) was 6370 nM, the GI50 (SW-620 colon) was 349 nM and the TGI (SW-620 colon) was > 100000 nM. For the same compound, the GI50 (T-47D breast) was 330 nM, the TGI (T-47D breast) was > 100000 nM and the GI50 (TK-10 renal) was 716 nM. For the same compound, the TGI (TK-10 renal) was > 100000 nM, the GI50 (U251 CNS) was 405 nM and the TGI (U251 CNS) was > 100000 nM. The GI50 (UACC-62 melanoma) was 1790 nM, the TGI (UACC-62 melanoma) was 26200 nM and the GI50 (UO-31 renal) was 7600 nM. For the same compound, the TGI (UO-31 renal) was > 100000 nM.
